Assay results reported in patent US12240828B2, “Heteroaromatic compounds as vanin inhibitors” (Boehringer Ingelheim International GmbH, priority 2018, dated 2025).

Columns and labels:
[1] = molecular target: T1, FLAG-tagged Vanin-1 (AA 22-493, T26I) (Homo sapiens, UniProt O95497, T26I); experiment: Vanin-1 enzymatic assay; assay type: biochemical; settings: 0.1 nM Vanin-1, 3 μM D-pantethine, pantothenic acid formation by RapidFire MS; geometric mean if multiple measurements; read-out: VNN-1 IC50
T1 construct: FLAG-tagged Vanin-1 (AA 22-493, T26I, produced internally); FLAG; made in house
T1 sequence (O95497 22-493 T26I): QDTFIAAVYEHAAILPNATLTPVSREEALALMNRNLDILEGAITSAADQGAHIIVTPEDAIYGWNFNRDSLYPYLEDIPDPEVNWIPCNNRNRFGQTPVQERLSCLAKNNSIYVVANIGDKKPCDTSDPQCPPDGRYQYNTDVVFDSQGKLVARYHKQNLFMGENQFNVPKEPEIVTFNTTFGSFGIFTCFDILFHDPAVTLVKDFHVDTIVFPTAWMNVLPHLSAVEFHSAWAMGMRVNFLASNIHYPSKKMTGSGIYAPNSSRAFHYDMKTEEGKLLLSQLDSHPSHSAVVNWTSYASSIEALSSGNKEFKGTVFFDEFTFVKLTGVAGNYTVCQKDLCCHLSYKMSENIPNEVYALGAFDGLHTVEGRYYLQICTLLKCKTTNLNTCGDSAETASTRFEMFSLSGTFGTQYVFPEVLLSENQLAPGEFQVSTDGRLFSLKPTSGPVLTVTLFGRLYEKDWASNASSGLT
Experimental: The test compounds are dissolved in 100% DMSO at a concentration of 10 mM and in a first step diluted in DMSO to a concentration of 5 mM, followed by serial dilution steps in 100% DMSO. Dilution factor and number of dilution steps may vary according to needs. Typically 8 different concentrations by 1:5 dilutions are prepared, a further intermediate dilutions of the substances is carried out with assay buffer resulting in 1% final DMSO concentration in the assay.
0.1 nM of FLAG-tagged Vanin-1 (AA 22-493, T26I, produced internally) and test compounds are incubated at room temperature for 20 minutes in assay buffer (1 mM DTT, 0.0025% Brij-35, 50 mM HEPES, pH7.5). D-Pantethine (Sigma, Cat #P2125-5G) in assay buffer is added (final concentration 3 μM) and incubated for additional 30 minutes at room temperature. Total assay volume typically is 40 μl but might be adjusted according to needs. Reaction is stopped by adding equal volume of stop solution as the reaction mixture to reach 100 nM HD-pantothenic acid (as an internal standard) and 1% TFA. Assay plates are centrifuged for 2 minutes and the formation of pantothenic acid is detected by RapidFire Mass Spectrometry (mobile phase A: 0.1% formic acid and 0.01% trifluoroacetic acid in water; mobile phase B: 47.5% acetonitrile, 47.5% methanol, 0.1% formic acid and 0.01% trifluoroacetic acid in water) using a C18, 12 μL cartridge (Agilent Cat #G9205A).
The values given in Table I result from measurements of one or more samples. In case of multiple measurements the geometric mean values are given.

Pantetheinase (vanin) = experiment: Human Whole Blood assay; assay type: cell-based; settings: pantethine substrate, pantothenic acid formation by RapidFire MS, read-out: HWB IC50
Experimental: Human Whole Blood assay: Pantetheinase (vanin) converts panteheine into pantothenic acid and cysteamine. Accordingly, in the described protocol vanin activity is quantified by formation of pantothenic acid after pantetheine supplementation via pantethine. The assay is applicable to identify vanin inhibitors. Compound stocks are dissolved in DMSO at 10 mM. Further dilutions are performed in RPMI 1640 medium (Gibco, #A-10491-01) and final concentrations in the assay are 0.032 nM-500 nM.
Human blood is drawn into a blood bag (1% heparin, 50 I.E./mL). Blood is aliquoted into cavities of 96-deep-well plates at 290 μL and mixed with 10 μL compound solution or vehicle (30 sec at 1400 rpm on a shaker). Equilibration follows at room temperature, 250 rpm and for 30 min. The assay is starts by adding 10 μL of substrate solution (20 μM pantethine in 1 mM DTT, 0.0025% Brij-35, 50 mM HEPES, pH7.5) to each well, except for some blank wells which receive […] substrate buffer (1 mM DTT, 0.0025% Brij-35, 50 mM HEPES, pH7.5) only. Samples are thoroughly shaken (30 sec, 1400 rpm) and reaction is allowed to take place at room temperature, 250 rpm and for 5 min. The reaction is stopped by addition of a vanin tool inhibitor in excess (BI-1 total conc. 10 μM). Centrifugation of the plate follows at 4° C., 665 G for 10 min. Then the blood plasma samples (100 μL) are transferred into another 96-deep-well plate and proteins are precipitated (5 min on ice) by adding 100 μL of ice cold precipitation solution (1 μM labelled pantothenic acid (di-β-alanine-13C6,15N2 calcium salt, Sigma, #705837) in acetonitrile). Afterwards the plate is centrifuged (4° C., 3220 G, 10 min) and supernatants (50 μL) are collected into another 96-deep-well plate and mixed (10 sec, 1400 rpm) with 150 μL ice cold formic acid (0.1%, Carl Roth GmbH+Co.KG, #CP03.1). The formation of pantothenic acid is detected by RapidFire Mass Spectrometry. A TripleQuad 6500+ (ABSciex, Germany) is equipped with an LC-1290 system, a RapidFire autosampler (Agilent, Germany) and a C18 cartridge Type C 12 μL (Agilent Cat #G9526-80000). Mobile phase A is consisting of 0.09% formic acid and 0.01% trifluoroacetic acid in water and mobile phase B of 0.09% formic acid and 0.01% trifluoroacetic acid in acetonitrile/methanol/water=47.5/47.5/5.

| IC50 [1] [nM] | IC50 (Pantetheinase (vanin)) [nM] | Structure (SMILES) |
| --- | --- | --- |
| 8.56 | 76.4 | CC(=O)N(C)[C@H]1CCN(C(=O)c2ccc(NC3CCc4ncccc43)nc2)C1 (single isomer, unassigned) [Example 8.14] |
| 0.12 | 1.34 | CC(=O)N(C)[C@H]1CCN(C(=O)c2ccc(NC(C)(C)c3ccccc3)nc2)C1 [Example 4.4] |
| 0.4 | 2.19 | CC(=O)N(C)[C@H]1CCN(C(=O)c2ccc(N[C@@H](C)c3ccc(F)cc3)nc2)C1 [Example 9.5] |
| 0.19 | 1.94 | C[C@H](Nc1ccc(C(=O)N2CCC(C)(C#N)C2)cn1)c1ccccc1 (stereo partly drawn) [Example 3.2] |
| 0.08 | 1 | CN(C(=O)C1CC(F)(F)C1)[C@H]1CCN(C(=O)c2ccc(NC(C)(C)c3cccnc3)nc2)C1 [Example 8.2] |
| 4.28 |  | O=C(N[C@H]1CCN(C(=O)c2ccc(NC3(c4cncnc4)CC3)nc2)C1)C1CC1 [Example 8.13] |
| 0.35 |  | CC(=O)N(C)[C@H]1CCN(C(=O)c2ccc(NC(C)c3cccc(C(N)=O)c3)nc2)C1 (stereo partly drawn) [Example 10.1, 3-[1-({5-[(3S)-3-(N-Methylacetamido)pyrrolidine-1-carbonyl]pyridin-2-yl}amino)ethyl]benzamide] |
| 0.21 |  | CC(=O)N(C)[C@H]1CCN(C(=O)c2ccc(NC3(c4ccccc4)CCC3)nc2)C1 [Example 4.6] |
| 0.72 |  | CC(=O)N(C)[C@H]1CCN(C(=O)c2ccc(NC(C)c3ccccc3)nc2)C1 (stereo partly drawn) [Example 9.7] |
| 0.15 |  | CC(=O)N(C)[C@H]1CCN(C(=O)c2ccc(NC3(c4ccc(Cl)cc4)CCC3)nc2)C1 [Example 9.2] |
| 0.11 |  | CN(C(=O)C1(C)CCC1)[C@H]1CCN(C(=O)c2ccc(NC(C)(C)c3cccnc3)nc2)C1 [Example 8.1, N,1-Dimethyl-N-[(3S)-1-(6-{[2-(pyridin-3-yl)propan-2-yl]amino}pyridine-3-carbonyl)pyrrolidin-3-yl]cyclobutane-1-carboxamide] |
| 0.74 |  | CC(=O)N(C)[C@H]1CCN(C(=O)c2ccc(N[C@@H](C)c3ccc(C#N)nc3)nc2)C1 [Example 11.1, N-[(3S)-1-(6-{[(1S)-1-(6-cyanopyridin-3-yl)ethyl]amino}pyridine-3-carbonyl)pyrrolidin-3-yl]-N-methylacetamide] |

Continued, compound first:

| Structure (SMILES) | IC50 [1] [nM] | IC50 (Pantetheinase (vanin)) [nM] |
| --- | --- | --- |
| CC(=O)N(C)[C@H]1CCN(C(=O)c2ccc(NC3CCc4ncccc43)nc2)C1 (stereo partly drawn) [Example 1.37] | 0.61 | 1.07 |
| COc1ccncc1CNc1ccc(C(=O)N2CC[C@H](N(C)C(=O)C3CC3)C2)cn1 [Example 1.10] | 0.14 | 1.24 |
| CC(=O)N(C)[C@H]1CCN(C(=O)c2ccc(NC3(c4cncc(C(F)(F)F)c4)CC3)nc2)C1 [Example 1.17] | 0.21 | 5.59 |
| CC[C@H](Nc1ccc(C(=O)N2CC[C@H](N(C)C(C)=O)C2)cn1)c1ccc(C(F)F)cc1 [Example 1.62] | 2.36 |  |
| CC(=O)N(C)[C@H]1CCN(C(=O)c2ccc(NC(C)c3cccnc3)nc2)C1 (single isomer, unassigned) [Example 6.1.A] | 0.09 | 2.59 |
| CC(=O)N(C)[C@H]1CCN(C(=O)c2ccc(NCc3ccc(N)nc3)nc2)C1 [Example 1.34] | 0.47 |  |
| CNS(=O)(=O)c1cccc(C(C)Nc2ccc(C(=O)N3CC[C@H](N(C)C(C)=O)C3)cn2)c1 (stereo partly drawn) [Example 1.21] | 0.24 | 0.8 |
| CC(=O)N(C)[C@H]1CCN(C(=O)c2ccc(NCc3cncc(Br)c3)nc2)C1 [Example 1.41] | 0.77 |  |
| CN(C(=O)C1CC(F)(F)C1)[C@H]1CCN(C(=O)c2ccc(NC(C)(C)c3ccccc3)nc2)C1 [Example 2.3] | 0.09 |  |
| CC(=O)N(C)[C@H]1CCN(C(=O)c2ccc(NC3CCCc4cn[nH]c43)nc2)C1 (stereo partly drawn) [Example 1.81] | 6.99 |  |
| CN(C(=O)C1(C)CCC1)[C@H]1CCN(C(=O)c2ccc(NCc3ccc(Cl)nc3)nc2)C1 [Example 1.28] | 0.32 |  |
| CC(=O)N(C)[C@H]1CCN(C(=O)c2ccc(NCc3cc(CC(C)C)n[nH]3)nc2)C1 [Example 1.88] | 8.83 |  |
| CC(=O)N(C)[C@H]1CCN(C(=O)c2ccc(N[C@@H](C)c3cccc(S(=O)(=O)N(C)C)c3)nc2)C1 [Example 1.45] | 0.94 |  |
| CC(=O)N(C)[C@H]1CCN(C(=O)c2ccc(NCc3cccc(-c4nc(CC(F)(F)F)no4)c3)nc2)C1 [Example 1.48] | 0.98 |  |
| CC(=O)N(C)[C@H]1CCN(C(=O)c2ccc(NCc3ccncc3)nc2)C1 [Example 1.87] | 8.45 |  |
| CN(C(=O)C1(C)CCC1)[C@H]1CCN(C(=O)c2ccc(NCc3cccnc3Cl)nc2)C1 [Example 1.7] | 0.12 |  |
| CC(=O)N(C)[C@H]1CCN(C(=O)c2ccc(NC3CCc4[nH]ncc43)nc2)C1 (stereo partly drawn) [Example 1.35] | 0.53 |  |
| COC(=O)c1cccc(C(C)Nc2ccc(C(=O)N3CC[C@H](N(C)C(C)=O)C3)cn2)c1 (stereo partly drawn) [Example 1.29] | 0.34 |  |
| CC(=O)N(C)[C@H]1CCN(C(=O)c2ccc(NC(C)c3nccs3)nc2)C1 (single isomer, unassigned) [Example 5.1.B] | 0.94 |  |
| CN(C(=O)C1CC1)[C@H]1CCN(C(=O)c2ccc(NCc3ccc(Cl)nc3)nc2)C1 [Example 1.13] | 0.17 |  |
| CC(=O)N(C)[C@H]1CCN(C(=O)c2ccc(NC(C)c3cccnc3)nc2)C1 (single isomer, unassigned) [Example 6.1.B] | 1.43 |  |
| CC(=O)Nc1cccc(C(C)Nc2ccc(C(=O)N3CC[C@H](N(C)C(C)=O)C3)cn2)c1 (stereo partly drawn) [Example 1.36] | 0.54 |  |
| CC(=O)N(C)[C@H]1CCN(C(=O)c2ccc(NCc3cccnn3)nc2)C1 [Example 1.49] | 1.04 |  |
| CC(=O)N(C)[C@H]1CCN(C(=O)c2ccc(NCc3ccccn3)nc2)C1 [Example 1.56] | 1.65 |  |
| CN(C(=O)C1(C)CCC1)[C@H]1CCN(C(=O)c2ccc(NCc3cnccc3C(F)(F)F)nc2)C1 [Example 1.39] | 0.66 |  |
| CC(=O)N(C)[C@H]1CCN(C(=O)c2ccc(NCc3ccnn3C)nc2)C1 [Example 1.90] | 9.37 |  |
| C[C@H](Nc1ccc(C(=O)N2CC[C@H](N(C)C(=O)C3(C)CCC3)C2)cn1)c1cnccn1 [Example 1.76] | 4.33 |  |
| CN(C)c1ccc(CNc2ccc(C(=O)N3CC[C@H](N(C)C(=O)C4(C)CCC4)C3)cn2)cn1 [Example 1.46] | 0.96 |  |
| CNC(=O)c1cccc([C@H](C)Nc2ccc(C(=O)N3CC[C@H](N(C)C(C)=O)C3)cn2)c1 [Example 1.25] | 0.27 |  |
